Patent publication US20170260134A1, “Ceramide Analogs” (Augusta University Research Institute, Inc., priority 2016, published 2017)
“Also recorded” adds a separate entry of the source.

Experiments:
[1] = tested on: SW480, RKO and HCT116 cells; experiment: Tumor cell apoptosis assay: ceramide analog at sublethal dose plus FasL (Annexin V/PI); assay type: cell-based, human; conditions: for increase of cell sensitivity to FasL-induced apoptosis: sublethal dose of analog (10 μM) plus FasL (10 ng/ml SW480, HCT; 100 ng/ml RKO); for activity in human colon carcinoma: summary statement
Protocol: FIG. 5A is a bar graph of Percent Apoptotic cell death of SW480 cells treated with the indicated ceramide analogs (10 μM), with (10 ng/ml) or without FasL and treated with FasL alone. FIG. 5B is a bar graph of Percent Apoptotic cell death of RKO cells treated with the indicated ceramide analogs (10 μM), with (100 ng/ml) or without FasL and treated with FasL alone. FIG. 5C is a bar graph of Percent Apoptotic cell death of HCT cells treated with the indicated ceramide analogs (10 μM), with (10 ng/ml) or without FasL and treated with FasL alone. % apoptotic cell death was calculated as % Annexin V^+PI^+ cells in the presence of ceramide analogs plus MegaFasL−% Annexin V^+PI^+ cells in the control group. Column: mean; Bar: SD.
Tumor cells were cultured in the presence of MegaFasL at the indicated concentrations as previously described Hu, X. et al. Deregulation of apoptotic factors Bcl-xL and Bax confers apoptotic resistance to myeloid-derived suppressor cells and contributes to their persistence in cancer. J Biol Chem 288, 19103-19115, doi:10.1074/jbc.M112.434530M112.434530 [pii] (2013). FasL (Mega-Fas Ligand®, kindly provided by Drs. Steven Butcher and Lars Damstrup at Topotarget A/S, Denmark) is a recombinant fusion protein that consists of three human FasL extracellular domains linked to a protein backbone comprising the dimmer-forming collagen domain of human adiponectin. The Mega-Fas Ligand was produced as a glycoprotein in mammalian cells using Good Manufacturing Practice compliant process in Topotarget A/S (Copenhagen, Denmark). For tumor cell apoptosis analysis, cells were stained with Alexa Fluor 647 Annexin V (Biolegend) in Annjixin V-binding buffer (10 mM Hepes, pH 7.4, 140 mM NaCl, 2.5 mM CaCl2) for 30 min at 4° C. Propidium Iodide was then added to the cell suspension, and cells were analyzed by flow cytometry as previously described Bardhan, K. et al. IFNgamma induces DNA methylation-silenced GPR109A expression via pSTAT1/p300 and H3K18 acetylation in colon cancer. Cancer Immunol Res, doi:canimm.0164.2014 [pii]2326-6066.CIR-14-0164 [pii] 10.1158/2326-6066.CIR-14-0164 (2015).
Next, the efficacy of the ceramide analogs was tested at their sublethal doses in enhancement of FasL-induced apoptosis using SW480, RKO and HCT116 cells. Tumor cells were treated with a sublethal dose of each of these 20 ceramide analogs along or ceramide analog plus FasL, and analyzed for apoptosis. […] Therefore, six novel ceramide analogs were identified that can effectively enhance the efficacy of FasL-induced apoptosis in human colon carcinoma cells.

CT26 tumor cells = experiment: CTL cytotoxicity assay with perforin-deficient CTLs (pfpCTL); assay type: cell-based; conditions: analog alone at the dose used
Protocol: FIG. 7A is a line graph of percent tumor cell lysis verus pfpCTLs E/T ratio. Cells were gated for CFSE^+ tumor cells. The gated cells were then analyzed for PI^+ cells. % tumor cell lysis was calculated as % CFSE^+PI^+ cells in the presence of CTLs−% CFSE^+PI^+ cells in the absence of CTLs. FIG. 7B is a bar graph of percent tumor cell lysis Cells were gated for CFSE^+ tumor cells. The gated cells were then analyzed for PI^+ cells. % tumor cell lysis was calculated as % CFSE^+PI^+ cells in the presence of ceramide analogs or ceramide analogs plus pfpCTLs−% CFSE^+PI^+ cells in the absence of ceramide analogs or ceramide analogs plus pfpCTLs. Column: mean; Bar: SD. Bolded ** indicated p<0.01 between ceramide analog+pfpCTLs group and pfpCTLs only group, and green ** indicates p<0.01 between ceramide analog+pfpCTLs group and ceramide analog only group. Column: mean; Bar: SD.
Perforin-deficient CTLs were generated and maintained by weekly stimulation with AH1 peptide as previously described Liu, K., Caldwell, S. A., Greeneltch, K. M., Yang, D. & Abrams, S. I. CTL Adoptive Immunotherapy Concurrently Mediates Tumor Regression and Tumor Escape. J Immunol 176, 3374-3382 (2006). […] Cells were analyzed immediately by flow cytometry. CFSE^+ tumor cells were gated and analyzed for PI^+ cells. […]

SW480 cells = experiment: Cell viability (MTT) assay, cytotoxicity of ceramide analogs; assay type: cell-based, human; conditions: three days, at the doses tested
Protocol: FIG. 4 is a bar graph of Percent Cell Viability (MTT assay) showing. cytotoxicity of the indicated ceramide analogs to human colon carcinoma cells. Human colon carcinoma SW480 cells were cultured in the presence of ceramide analogs at the indicated concentrations for three days. Cell viability was determined by MTT assays. % cell viability of control was set at 100% and cell viability of treatment groups was calculated as % of the control groups. IC50 was calculated using GraphPad Prism program.
Cells were seeded in 96-well plates at 2×10^3 cells/well in 100 μl culture medium for 3 days. Cell viability assays were performed using the MTT cell proliferation assay kit (ATCC, Manassas, Va.) according to the manufacturer's instructions.
The structures and functions of ceramide analogs Cheng, J. C. et al. Radiation-induced acid ceramidase confers prostate cancer resistance and tumor relapse. J Clin Invest 123, 4344-4358, doi:10.1172/JCI6479164791 [pii] (2013); and Paschall, A. V. et al. Ceramide targets xIAP and cIAP1 to sensitize metastatic colon and breast cancer cells to apoptosis induction to suppress tumor progression. BMC Cancer 14, 24, doi:10.1186/1471-2407-14-241471-2407-14-24 [pii] (2014) were analyzed and synthesized twenty ceramide analogs to be developed into Fas sensitizers (Supplemental Table 1). […]

CT26 cells = experiment: CT26 colon carcinoma lung metastasis in BALB/c mice; assay type: in vivo; conditions: 25 and 50 kg body weight, intraperitoneal, days 8, 10 and 12 after tumor injection
Protocol: FIG. 8 is a bar graph of number of tumor nodules/lung in lungs taken from BALB/c mice injected with CT26 cells (2.5×10^5 cell per mouse). Tumor-bearing mice were treated with the indicated 5 ceramide analogs (25 and 50 […]) by intraperitoneal injection at days 8, 10 and 12 after tumor injection. CT26 cells (2.5×10^5 cell per mouse) were injected to BALB/c mice on […]. Tumor-bearing mice were treated with the 5 ceramide analogs (25 and 50 […]) by intraperitoneal injection at days 8, 10 and 12 after tumor injection. […]. Mouse lungs were inflated with ink and fixed. […] White dots are tumor nodules. Bottom panel: quantification of tumor nodule number in the lungs.

Row | SMILES | increase of cell sensitivity to FasL-induced apoptosis [1] | activity in human colon carcinoma [1] | cytotoxicity to CT26 tumor cells (CT26 tumor cells) | cytotoxicity (SW480 cells) | established colon carcinoma lung metastasis (tumor nodules/lung) (CT26 cells)
1 | CCCCCCCCCCCCCNC(=O)[C@@H](NC(=O)c1cc2c(OC)cccc2[nH]1)[C@@H](C)O [IG8] | effectively increase; also recorded: significant efficacy | potent activity | high cytotoxicity | – | –
2 | CCCCCCCCCCCCN(C)C(=O)[C@@H](NC(=O)c1cc2cc(Br)ccc2[nH]1)[C@@H](C)O [IG10] | – | – | – | no cytotoxicity | –
3 | CCCCCCCCCCCCCNC(=O)[C@@H](NC(=O)c1cc2c(F)cccc2[nH]1)[C@@H](C)O [IG4] | effectively increase; also recorded: significant efficacy | potent activity | – | – | suppress
4 | CCCCCCCCCCCCN(C)C(=O)[C@@H](NC(=O)c1cc2c(F)cccc2[nH]1)[C@@H](C)O [IG19] | effectively increase; also recorded: significant efficacy | – | – | – | suppress
5 | CCCC/C=C/CCCCCCCC(=O)N[C@H](CO)[C@@H](O)c1ccc([N+](=O)[O-])cc1 [IG20, (E)-N-((1S,2R)-1,3-dihydroxy-1-(4-nitrophenyl)propan-2-yl)tetradec-9-enamide] | – | – | – | no cytotoxicity | –
6 | CCCCCCCCCCCCCNC(=O)[C@@H](NC(=O)c1cc2cc(OC)ccc2[nH]1)[C@@H](C)O [IG7] | effectively increase; also recorded: significant efficacy | potent activity | – | – | suppress
7 | CCCCCCCC/C=C\CCCCCCCC(=O)N[C@H](CO)[C@@H](O)c1ccc([N+](=O)[O-])cc1 [IG17, N-((1S,2R)-1,3-dihydroxy-1-(4-nitrophenyl)propan-2-yl)oleamide] | effectively increase; also recorded: significant efficacy | potent activity | – | – | suppress
8 | CCCCCCCCCCCCN(C)C(=O)[C@@H](NC(=O)c1cc2cc(C)ccc2[nH]1)[C@@H](C)O [IG9] | – | potent activity | – | – | –
9 | CCCCCCCCCCCCN(C)C(=O)[C@@H](NC(=O)c1cc2cc(F)ccc2[nH]1)[C@@H](C)O [IG14] | effectively increase; also recorded: significant efficacy | potent activity | – | – | –
